Assay results from ChEMBL document CHEMBL1138817, “Synthesis and cytotoxic activity of 3-O-acyl/3-hydrazine /2-bromo/20,29-dibromo betulinic acid derivatives” (2004).
≈ marks a conversion by molar mass, not a printed value.

Key:
Format in all cases: functional
MOLT-4 = assay: Cytotoxic activity against human MOLT-4 cell line was measured after 72 hr using MTT assay; details: for EC50: Homo sapiens, MOLT-4, 72 h, read-out: ED50 (the source's name)
U-937 = assay: Cytotoxic activity against human U937 cell line was measured after 72 hr using MTT assay; details: for EC50: Homo sapiens, U-937, 72 h, read-out: ED50 (the source's name)
L132 = assay: Cytotoxic activity against human L132 cell line was measured after 72 hr using MTT assay; details: L132, 72 h, read-out: ED50 (the source's name)
BRISTOL8 = assay: Cytotoxic activity against human BRISTOL8 cell line was measured after 72 hr using MTT assay; details: for EC50: Homo sapiens, BRISTOL8, 72 h, read-out: ED50 (the source's name)
A549 = assay: Cytotoxic activity against human A549 cell line was measured after 72 hr using MTT assay; details: A549, 72 h, read-out: ED50 (the source's name)
Jurkat = assay: Cytotoxic activity against human JurkatE6.1 cell line was measured after 72 h using MTT assay; details: for EC50: Homo sapiens, Jurkat, 72 h, read-out: ED50 (the source's name)
CCRF-CEM = assay: Cytotoxic activity against human CEM.CM3 cell line was measured after 72 hr using MTT assay; details: for EC50: Homo sapiens, CCRF-CEM, 72 h, read-out: ED50 (the source's name)
PA-1 = assay: Cytotoxic activity against human PA-1 cell line was measured after 72 hr using MTT assay; details: for EC50: Homo sapiens, PA-1, 72 h, read-out: ED50 (the source's name)
DU-145 = assay: Cytotoxic activity against human DU145 cell line was measured after 72 hr using MTT assay; details: for EC50: Homo sapiens, DU-145, 72 h, read-out: ED50 (the source's name)

| SMILES | EC50 (MOLT-4) | EC50 (U-937) | EC50 (L132) | EC50 (BRISTOL8) | EC50 (A549) | EC50 (Jurkat) | EC50 (CCRF-CEM) | EC50 (PA-1) | EC50 (DU-145) | ED50 (Jurkat) | ED50 (DU-145) | ED50 (MOLT-4) | ED50 (U-937) | ED50 (BRISTOL8) | ED50 (CCRF-CEM) | ED50 (PA-1) |
| --- | --- | --- | --- | --- | --- | --- | --- | --- | --- | --- | --- | --- | --- | --- | --- | --- |
| C=C(C)[C@@H]1CC[C@]2(C(=O)O)CC[C@]3(C)C(CCC4[C@@]5(C)CC/C(=N\Nc6ccccc6)C(C)(C)C5CC[C@]43C)C12 (stereo not given in full) | 3.4 µg/mL (≈ 6.24 µM) | 2.4 µg/mL (≈ 4.41 µM) | 4.3 µg/mL (≈ 7.89 µM) | 3.4 µg/mL (≈ 6.24 µM) | > 10 µg/mL | 2.6 µg/mL (≈ 4.77 µM) | 3.1 µg/mL (≈ 5.69 µM) | 5.3 µg/mL (≈ 9.73 µM) | 2.4 µg/mL (≈ 4.41 µM) |  |  |  |  |  |  |  |
| C=C(C)[C@@H]1CC[C@]2(C(=O)O)CC[C@]3(C)C(CCC4[C@@]5(C)CC/C(=N\OS(=O)(=O)c6ccc(C)cc6)C(C)(C)C5CC[C@]43C)C12 (stereo not given in full) | 2.7 µg/mL (≈ 4.33 µM) | 4.8 µg/mL (≈ 7.69 µM) | > 10 µg/mL | 3.3 µg/mL (≈ 5.29 µM) | > 10 µg/mL | 4.9 µg/mL (≈ 7.85 µM) | 1.5 µg/mL (≈ 2.4 µM) | 1.8 µg/mL (≈ 2.89 µM) | 2.8 µg/mL (≈ 4.49 µM) |  |  |  |  |  |  |  |
| C=C(C)[C@@H]1CC[C@]2(C(=O)CC(=O)OC)CC[C@]3(C)C(CCC4[C@@]5(C)CC[C@H](O)C(C)(C)C5CC[C@]43C)C12 (stereo not given in full) | 3.9 µg/mL (≈ 7.61 µM) | > 10 µg/mL | > 10 µg/mL | 4.5 µg/mL (≈ 8.78 µM) | > 10 µg/mL | 7.4 µg/mL (≈ 14.4 µM) | 6.4 µg/mL (≈ 12.5 µM) | 7.1 µg/mL (≈ 13.8 µM) | 2.9 µg/mL (≈ 5.66 µM) |  |  |  |  |  |  |  |
| C=C(C)[C@@H]1CC[C@]2(C(=O)OCC(=O)OC)CC[C@]3(C)C(CCC4[C@@]5(C)CCC(=N)C(C)(C)C5CC[C@]43C)C12 (stereo not given in full) | 1.7 µg/mL (≈ 3.23 µM) | 1.7 µg/mL (≈ 3.23 µM) | > 10 µg/mL | 1.4 µg/mL (≈ 2.66 µM) | > 10 µg/mL | 0.5 µg/mL (≈ 0.951 µM) | 1.4 µg/mL (≈ 2.66 µM) | 6.5 µg/mL (≈ 12.4 µM) | 5.5 µg/mL (≈ 10.5 µM) |  |  |  |  |  |  |  |
| COC(=O)C(C)C(=O)O[C@H]1CC[C@@]2(C)C(CC[C@]3(C)C2CCC2C4[C@H](C(C)C)CC[C@]4(C(=O)O)CC[C@]23C)C1(C)C (stereo not given in full) | 2.8 µg/mL (≈ 4.89 µM) | 4 µg/mL (≈ 6.98 µM) | 7.7 µg/mL (≈ 13.4 µM) | 2.1 µg/mL (≈ 3.67 µM) | 2.1 µg/mL (≈ 3.67 µM) | 3.8 µg/mL (≈ 6.63 µM) | 3.1 µg/mL (≈ 5.41 µM) | 1.3 µg/mL (≈ 2.27 µM) | 1 µg/mL (≈ 1.75 µM) |  |  |  |  |  |  |  |
| CC(=O)O[C@H]1CC[C@@]2(C)C(CC[C@]3(C)C2CCC2C4[C@H](C(C)C)CC[C@]4(C(=O)O)CC[C@]23C)C1(C)C (stereo not given in full) | 1.1 µg/mL (≈ 2.2 µM) | 1.8 µg/mL (≈ 3.59 µM) | 2.9 µg/mL (≈ 5.79 µM) | 3.4 µg/mL (≈ 6.79 µM) | 2.3 µg/mL (≈ 4.59 µM) | 1.6 µg/mL (≈ 3.2 µM) | 1 µg/mL (≈ 2 µM) | 0.8 µg/mL (≈ 1.6 µM) | 0.9 µg/mL (≈ 1.8 µM) |  |  |  |  |  |  |  |
| COC(=O)COC(=O)[C@]12CC[C@@H](C(C)C)C1C1CCC3[C@@]4(C)CC(Br)C(=O)C(C)(C)C4CC[C@@]3(C)[C@]1(C)CC2 (stereo not given in full) | 1.7 µg/mL (≈ 2.8 µM) | 1.1 µg/mL (≈ 1.81 µM) | > 10 µg/mL | 3.4 µg/mL (≈ 5.6 µM) | > 10 µg/mL | 2.8 µg/mL (≈ 4.61 µM) | 2.1 µg/mL (≈ 3.46 µM) | 3.2 µg/mL (≈ 5.27 µM) | 6.8 µg/mL (≈ 11.2 µM) |  |  |  |  |  |  |  |
| COC(=O)COC(=O)[C@]12CC[C@@H](C(C)(Br)CBr)C1C1CCC3[C@@]4(C)CC(Br)C(=O)C(C)(C)C4CC[C@@]3(C)[C@]1(C)CC2 (stereo not given in full) | 1.3 µg/mL (≈ 1.7 µM) | 0.7 µg/mL (≈ 0.914 µM) | > 10 µg/mL | 1.9 µg/mL (≈ 2.48 µM) | > 10 µg/mL | 1.1 µg/mL (≈ 1.44 µM) | 1.2 µg/mL (≈ 1.57 µM) | 2.5 µg/mL (≈ 3.27 µM) | 4.5 µg/mL (≈ 5.88 µM) |  |  |  |  |  |  |  |
| CC(Br)(CBr)[C@@H]1CC[C@]2(C(=O)O)CC[C@]3(C)C(CCC4[C@@]5(C)CC(Br)[C@H](O)C(C)(C)C5CC[C@]43C)C12 (stereo not given in full) | 3.6 µg/mL (≈ 5.18 µM) | > 10 µg/mL | > 10 µg/mL | 7 µg/mL (≈ 10.1 µM) | > 10 µg/mL | > 10 µg/mL | 6.8 µg/mL (≈ 9.78 µM) | 6 µg/mL (≈ 8.63 µM) | > 10 µg/mL |  |  |  |  |  |  |  |
| C=C(C)[C@@H]1CC[C@]2(C(=O)OCC(=O)OC)CC[C@]3(C)C(CCC4[C@@]5(C)CC[C@H](O)C(C)(C)C5CC[C@]43C)C12 (stereo in doubt; 3) | 4 µg/mL (≈ 7.56 µM) | > 10 µg/mL | > 10 µg/mL | 5.3 µg/mL (≈ 10 µM) | > 10 µg/mL |  | 3.2 µg/mL (≈ 6.05 µM) | 5.9 µg/mL (≈ 11.2 µM) |  | 1.4 µg/mL (≈ 2.65 µM) | >10 µg/mL |  |  |  |  |  |
| C=C(C)[C@@H]1CC[C@]2(C(=O)OCC(=O)OC)CC[C@]3(C)C(CCC4[C@@]5(C)CC[C@H](O)C(C)(C)C5CC[C@]43C)C12 (stereo in doubt; 4) |  |  |  |  |  |  |  |  |  | 3.1 µg/mL (≈ 5.86 µM) | 1.9 µg/mL (≈ 3.59 µM) | 2.9 µg/mL (≈ 5.48 µM) | 5.4 µg/mL (≈ 10.2 µM) | 7.4 µg/mL (≈ 14 µM) | 5.9 µg/mL (≈ 11.2 µM) | 3.1 µg/mL (≈ 5.86 µM) |
| C=C(C)[C@@H]1CC[C@]2(C(=O)O)CC[C@]3(C)[C@H](CC[C@@H]4[C@@]5(C)CC[C@H](O)C(C)(C)[C@@H]5CC[C@]43C)[C@@H]12 [BETULINIC ACID] | 1.23 µg/mL (≈ 2.69 µM) | 0.69 µg/mL (≈ 1.51 µM) | 1.3 µg/mL (≈ 2.85 µM) | 0.84 µg/mL (≈ 1.84 µM) | > 10 µg/mL | 0.65 µg/mL (≈ 1.42 µM) | 0.98 µg/mL (≈ 2.15 µM) | > 10 µg/mL | 1.13 µg/mL (≈ 2.47 µM) |  |  |  |  |  |  |  |
| C=C(C)[C@@H]1CC[C@]2(C(=O)O)CC[C@]3(C)[C@H](CC[C@@H]4[C@@]5(C)CCC(=O)C(C)(C)[C@@H]5CC[C@]43C)[C@@H]12 [BETUNOLIC ACID] | 1.2 µg/mL (≈ 2.64 µM) | 2.8 µg/mL (≈ 6.16 µM) | > 10 µg/mL | 2.6 µg/mL (≈ 5.72 µM) | > 10 µg/mL | 0.4 µg/mL (≈ 0.88 µM) | 4.4 µg/mL (≈ 9.68 µM) | 1.2 µg/mL (≈ 2.64 µM) | 3.1 µg/mL (≈ 6.82 µM) |  |  |  |  |  |  |  |
